# From patent US10357487B2, “Combinations of acetylcholinesterase inhibitors and muscarinic agonists and methods of use thereof” (priority 2015, dated 2019)
# Tests used:
# [1] = tested on: patients with history of PVR; assay: Side effects observed in the patients
# [2] = tested on: patients with history of PVR; assay: Post void residual (PVR) before and after combination regimen in patients with urinary retention; type: in vivo, human; details: donepezil 5 or 10 added to respective regimens (alpha blocker, bethanechol); all patients
# Description: (§1) The patients opted for immediate TURP and pharmacological therapy with alpha blocker, bethanechol, and donepezil if needed.
# (§2) Bethanechol was then added to maximal recommended doses, according to package insert or Physician Desk Reference (PDR), which was 200 mg per day in divided doses. […] Bethanocol was either added at 75 mg five times per day to their existing regimen or patients were switched to betahnocol alone at 75 mg five time per day.
# (§3) Subsequently donepezil was added in amounts ranging from 5 or 10 to their respective regimens.
# [3] = tested on: patients with history of PVR; assay: Voiding trial / ability to void under stepwise drug regimens; type: in vivo, human
# Description: In an exemplary embodiment, patients with history of PVR of 100 ml to 2500 ml failed bother standard drug treatment and the Trans Urethral Resection of the Prostate (TURP) procedure or combinations of both treatment options.
# as §1, §2, §3
# While all patients in this series were males, females can also benefit from the present combination, particularly if no obstruction exists in their urinary tract.
# [4] = silodosin 8 mg added to tamsulosin
smiles,measurement,setting,value
"CC(C[N+](C)(C)C)OC(N)=O (centres unmarked) [bethanechol, carbamyl-methylcholine chloride]",side effects,"[1]; bethanechol at 200 mg per day or 375 mg per day, eight patients",no side effects
COc1cc2c(cc1OC)C(=O)C(CC1CCN(Cc3ccccc3)CC1)C2 (centres unmarked) [donepezil],reduction in PVR upon completion of the trial,[2],more than 75%
same,ability to void,"[3]; donepezil 5 or 10 added to respective regimens, each patient",able to void
same,bladder emptying,"[3]; eight sequentially seen patients, donepezil with bethanechol",potentiated bethanechol to facilitate bladder emptying
same,frequency of voiding,"[3]; upon continuation of the regimen with donepezil, all patients",increasing frequency of voiding
C[C@H](Cc1cc2c(c(C(N)=O)c1)N(CCCO)CC2)NCCOc1ccccc1OCC(F)(F)F [silodosin],side effects,[1]; [4],no extra side effects
same,voiding trial,[3]; [4],failed to the voiding trial
CCOc1ccccc1OCCN[C@H](C)Cc1ccc(OC)c(S(N)(=O)=O)c1 [tamsulosin],voiding trial,[3]; tamsulosin 0.4 mg or 0.8 mg per day,failed a voiding trial
